# Laboratory results: publication PMC11684029, “Discovery of VU6024578/BI02982816: An mGlu1 Positive Allosteric Modulator with Efficacy in Preclinical Antipsychotic and Cognition Models” (Journal of Medicinal Chemistry, 2024)
# Entries after “also recorded” stand apart in the source; their conditions may differ.
# Experiments:
# [1] = molecular target: T1, human mGlu1 (Homo sapiens, UniProt Q13255); assay: mGlu1 calcium mobilization (triple-add) PAM assay; type: cell-based
# T1 construct: expressed in transfected cells; pcDNA5/TO)
# Experimental: Tetracycline-inducible human mGlu1 WT-T-REx-293 cells (Wu et al, Science 2014) were cultured at 37 °C in Dulbecco’s Modified Eagle Medium (DMEM) growth medium containing 10% Tet-tested FBS, 2 mM L-glutamine, 20 mM HEPES, 0.1 mM nonessential amino acids, 1 mM sodium pyruvate, antibiotic/antimycotic, 100 μg/mL hygromycin and 5 μg/mL blasticidin in the presence of 5% CO2. […] The mutant stable cell lines were generated in the same manner as the WT as previously described and cultured in the growth medium described above.
# To determine the potency of mGlu1 PAMs in calcium assays, Ca flux was measured as previously described in ACS Chem. Bio. 2014, 9, 2334–2346. Briefly, the day before the assay, human mGlu1 WT-T-REx-293 cells were plated in black-walled, clear-bottomed, poly-D-lysine coated 96-well plates at 80,000 cells/100 μL assay medium (DMEM supplemented with 10% dialyzed FBS, 20 mM HEPES, and 1 mM sodium pyruvate) containing 50 ng/mL of tetracycline to induce mGlu1 expression. The next day, media was removed and the cells were incubated with 50 μL of 1.15 μM Fluo-4 AM dye solution prepared in assay buffer (buffer (Hank’s balanced salt solution, 20 mM HEPES, and 2.5 mM probenecid) for 45 min at 37 °C, the dye was removed and replaced with 45 μL of assay buffer. Then, calcium flux was measured using Flexstation II (Molecular Devices, Sunnyvale, CA). Compounds serially diluted at half log concentrations in DMSO were further diluted in assay buffer. The compounds or DMSO vehicle were added to cells and incubated for 2.5 min and an EC20 concentration of glutamate was added and incubated for 1 min. An ECmax concentration of glutamate was also added to cells that were incubated with DMSO vehicle to accurately calculate the EC20 calcium response. Data were normalized by subtracting the basal florescent peak before EC20 agonist addition from the maximal peak elicited by EC20 agonist and PAMs. Using GraphPad Prism 5.0, the concentration response curves were generated and the potencies of the mGlu1 PAMs were determined.
# [2] = system: human mGlu2–5,7,8; assay: mGlu subtype selectivity; type: cell-based
# Experimental: (§1) Over the course of the mGlu1 PAM program, 19d became an assay standard and was assayed multiple times, affording refined potency values.[20]
# [3] = system: rat mGlu2–5,7,8; assay: mGlu subtype selectivity; type: cell-based; conditions: inactive
# Experimental: as §1
# [4] = brain homogenate binding; type: in vitro ADME, mouse; conditions: fraction unbound
# [5] = molecular target: 3A4 (Homo sapiens, UniProt P08684); assay: 3A4 mechanism-based inhibition; type: in vitro ADME
# [6] = metabolite identification; type: in vitro ADME; conditions: ± NADPH; for metabolites of the furanyl ring: 60 min; for parent in 60 min samples: UV peak areas
# Experimental: Across species, 19d had acceptable fraction unbound in both plasma (fu (plasma): 0.03 (human), 0.041 (rat), 0.025 (cyno), 0.039 (dog) and 0.056 (mouse)) and brain (fu (brain): 0.034 (rat) and 0.081 (mouse)).
# Figure 5 Metabolite identification of VU6024578 (19d) in rat and human liver microsomes. […] Thus, we incubated 19d in rat and human liver microsomes (with and without NADPH) for 60 min and monitored by both extracted ion and UV detection for the production of metabolites and consumption of parent.
# [7] = PK in parallel to rat locomotor battery; type: in vivo
# Experimental: In order to enable our target validation work, we first profiled PAM 19d in a rat locomotor battery to ensure that pharmacodynamic efficacy was not mistaken for gross effects on locomotion.[20] […] PK was performed in parallel to establish a PK/PD relationship.[24]
# Figure S2. 19d assessed in rat locomotor battery A: Exposure of 19d in the locomotor battery experiment. […]
# [8] = system: male beagles; assay: adverse events in dog PK; type: in vivo; conditions: 0.5 mg/kg IV
# Experimental: Deeper profiling began with IV dog PK (0.5 mg/kg, n = 3 male beagles). […] Was this a mechanism-based toxicity in dog? Could there be dog-specific pharmacology of mGlu1 activation? Were these AEs derived from the 19d chemotype? Could a mGlu1/mGlu5 heterodimer be responsible for the observed AEs? […] In an attempt to address the chemotype question, we evaluated PAM 4 (VU6004909),[8] an early generation rodent in vivo tool compound, for the first time in dog PK. […] of the study with 19d, PAM 4 produced no AEs in dog. […] Therefore, more molecular pharmacology and PK studies as well as additional chemically distinct mGlu1 PAM chemotypes are required to understand the AEs elicited by an mGlu1 PAM in dogs, an otherwise very promising target for the treatment of schizophrenia.
# [9] = system: rats; assay: adverse events in rats; type: in vivo, rat; conditions: much higher exposures than in dog
# [10] = molecular target: T2, 5-HT1A (Homo sapiens, UniProt P08908); assay: Eurofins radioligand binding panel; conditions: agonist radioligand
# T2 construct: Eurofins
# Excerpt: (§2) Table S1. Eurofins Lead Profiling Screen Data
# (§3) This is a radioligand binding panel of 80 targets including GPCRs, ion channels, transporters and nuclear hormones. Biochemical assay results are presented as the percent inhibition of specific […]
# (§4) Results showing an inhibition or stimulation higher than 50% are considered to represent significant effect and are highlighted […]
# (§5) Target / Protein Species % Inhibition at 10
# (§6) Adenosine A1 (antagonist radioligand) human 8
# (§7) Adenosine A2A (agonist radioligand) human -1
# (§8) Adenosine A3 (agonist radioligand) human 23
# (§9) Adrenergic alpha 1 (non-selective) (antagonist radioligand) rat 19
# (§10) Adrenergic alpha 2 (non-selective) (antagonist radioligand) rat 1
# (§11) Adrenergic beta 1 (agonist radioligand) human 1
# (§12) Adrenergic beta 2 (antagonist radioligand) human -1
# (§13) AT1 (antagonist radioligand) human -1
# (§14) AT2 (agonist radioligand) human 2 […]
# (§15) BB (non-selective) (agonist radioligand) rat -20
# (§16) B2 (agonist radioligand) human 7
# (§17) CGRP (agonist radioligand) human 1
# (§18) CB1 (agonist radioligand) human 0
# (§19) CCK1 (CCKA) (agonist radioligand) human 7
# (§20) CCK2 (CCKB) (agonist radioligand) human -4
# [11] = molecular target: T3, EP4 (Homo sapiens, UniProt P35408); assay: Eurofins radioligand binding panel; conditions: agonist radioligand
# T3 construct: Eurofins
# Excerpt: as §2, §3, §4, §5, §6, §7, §8, §9, §10, §11, §12, §13, §14, §15, §16, §17, §18, §19, §20
# [12] = PAM, calcium flux, EC20 glutamate
# T1 sequence (Q13255 19-1194): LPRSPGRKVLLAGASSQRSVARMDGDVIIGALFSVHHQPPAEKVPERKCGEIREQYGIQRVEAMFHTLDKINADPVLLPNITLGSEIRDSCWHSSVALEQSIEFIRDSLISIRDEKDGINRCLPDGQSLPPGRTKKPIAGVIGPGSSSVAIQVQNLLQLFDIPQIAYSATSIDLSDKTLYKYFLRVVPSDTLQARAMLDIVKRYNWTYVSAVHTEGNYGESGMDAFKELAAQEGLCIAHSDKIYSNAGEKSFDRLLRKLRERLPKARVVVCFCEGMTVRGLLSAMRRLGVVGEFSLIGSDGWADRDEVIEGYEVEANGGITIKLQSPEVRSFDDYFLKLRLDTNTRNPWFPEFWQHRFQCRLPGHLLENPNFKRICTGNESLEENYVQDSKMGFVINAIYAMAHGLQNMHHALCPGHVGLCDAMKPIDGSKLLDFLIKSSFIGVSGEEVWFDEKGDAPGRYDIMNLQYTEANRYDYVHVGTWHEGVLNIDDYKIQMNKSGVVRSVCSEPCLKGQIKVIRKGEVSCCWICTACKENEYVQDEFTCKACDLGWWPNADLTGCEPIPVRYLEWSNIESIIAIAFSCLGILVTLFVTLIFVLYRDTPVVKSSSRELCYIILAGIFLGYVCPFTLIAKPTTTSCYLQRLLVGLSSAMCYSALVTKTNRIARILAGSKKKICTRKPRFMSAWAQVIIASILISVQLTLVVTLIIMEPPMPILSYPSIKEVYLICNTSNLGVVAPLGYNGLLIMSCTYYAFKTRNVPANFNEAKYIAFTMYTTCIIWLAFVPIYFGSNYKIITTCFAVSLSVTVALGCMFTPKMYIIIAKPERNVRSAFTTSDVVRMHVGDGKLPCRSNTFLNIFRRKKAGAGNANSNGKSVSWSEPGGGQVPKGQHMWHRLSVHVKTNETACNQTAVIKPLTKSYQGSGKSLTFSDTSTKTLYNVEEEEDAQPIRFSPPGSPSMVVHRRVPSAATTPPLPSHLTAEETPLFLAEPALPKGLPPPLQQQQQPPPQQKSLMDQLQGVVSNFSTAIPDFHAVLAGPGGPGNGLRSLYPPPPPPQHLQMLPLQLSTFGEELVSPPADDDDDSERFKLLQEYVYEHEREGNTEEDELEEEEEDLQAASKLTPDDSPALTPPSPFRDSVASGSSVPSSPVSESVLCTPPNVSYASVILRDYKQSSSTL
# Sequence of 3A4 (P08684 whole entry): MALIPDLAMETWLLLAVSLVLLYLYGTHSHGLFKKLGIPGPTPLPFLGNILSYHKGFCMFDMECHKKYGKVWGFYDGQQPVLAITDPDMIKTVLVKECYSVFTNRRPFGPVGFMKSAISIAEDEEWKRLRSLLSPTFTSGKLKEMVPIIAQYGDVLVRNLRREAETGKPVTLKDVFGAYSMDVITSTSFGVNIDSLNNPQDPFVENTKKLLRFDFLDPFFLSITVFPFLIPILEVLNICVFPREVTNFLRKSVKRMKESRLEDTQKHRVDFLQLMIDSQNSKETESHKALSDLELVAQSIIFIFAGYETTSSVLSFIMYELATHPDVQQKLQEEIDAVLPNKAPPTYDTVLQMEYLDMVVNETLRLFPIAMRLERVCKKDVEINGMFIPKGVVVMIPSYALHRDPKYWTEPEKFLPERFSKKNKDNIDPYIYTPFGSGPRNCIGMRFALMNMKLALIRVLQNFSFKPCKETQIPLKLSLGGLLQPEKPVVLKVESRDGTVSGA
# T3 sequence (P35408 whole entry): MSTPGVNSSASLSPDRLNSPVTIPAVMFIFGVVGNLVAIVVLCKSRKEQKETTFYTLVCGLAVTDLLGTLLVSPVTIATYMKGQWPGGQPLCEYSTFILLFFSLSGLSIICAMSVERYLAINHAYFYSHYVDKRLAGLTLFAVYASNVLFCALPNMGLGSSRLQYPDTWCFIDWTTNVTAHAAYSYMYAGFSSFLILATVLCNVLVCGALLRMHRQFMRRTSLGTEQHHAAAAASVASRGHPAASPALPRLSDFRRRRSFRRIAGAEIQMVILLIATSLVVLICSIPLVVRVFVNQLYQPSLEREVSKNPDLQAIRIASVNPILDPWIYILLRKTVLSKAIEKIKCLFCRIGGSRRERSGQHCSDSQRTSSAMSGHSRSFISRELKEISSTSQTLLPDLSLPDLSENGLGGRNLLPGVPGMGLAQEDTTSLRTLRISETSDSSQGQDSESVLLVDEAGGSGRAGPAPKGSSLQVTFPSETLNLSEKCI
# T2 sequence (P08908 whole entry): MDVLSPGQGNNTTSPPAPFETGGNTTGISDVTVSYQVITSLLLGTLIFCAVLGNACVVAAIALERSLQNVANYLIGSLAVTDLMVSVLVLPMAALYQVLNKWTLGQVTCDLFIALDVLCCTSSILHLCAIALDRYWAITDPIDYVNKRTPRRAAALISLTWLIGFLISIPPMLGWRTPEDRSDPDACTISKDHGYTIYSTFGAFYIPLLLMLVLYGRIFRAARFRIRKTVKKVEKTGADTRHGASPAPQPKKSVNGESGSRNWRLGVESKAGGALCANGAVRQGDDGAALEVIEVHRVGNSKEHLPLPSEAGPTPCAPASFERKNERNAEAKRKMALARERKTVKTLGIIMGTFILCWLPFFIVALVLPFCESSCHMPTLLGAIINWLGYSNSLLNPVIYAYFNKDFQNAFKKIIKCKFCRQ
smiles,measurement,setting,value
"Cn1nc(-c2ccnn2C)cc1CNC(=O)c1cc(-c2ccco2)ccc1Cl [Compound 19d, 2-Chloro-N-((1,2′-dimethyl-1H,2’H-[3,3′-bipyrazol]-5-yl)methyl)-5-(furan-2-yl)benzamide]",EC50,[1]; [12],54 nM
same,human mGlu1 Glumax,[1]; [12],83%
same,human mGlu1 pEC50,[1]; n = 77,7.31 ± 0.02
same,receptor desensitization (antagonist/EC80 window),[1]; triple-add protocol,only slight mGlu1 desensitization; also recorded: little receptor desensitization
same,intrinsic agonist activity (compound alone window),"[1]; triple-add protocol, up to 30 μM",no agonism; also recorded: no intrinsic agonist activity
same,"activity against human mGlu2–5,7,8",[2]; inactive,> 30 µM
same,"activity on mGlu2–5,7,8, in words",[2]; species not given,inactive
same,"activity against rat mGlu2–5,7,8",[3],> 30 µM
same,"fu (brain), mouse",[4],0.081
same,3A4 mechanism-based inhibition,[5],no 3A4 mechanism-based inhibition
same,metabolites of the furanyl ring,[6]; human liver microsomes,no metabolites corresponding to oxidation or opening of the furanyl ring were detected
same,parent in 60 min samples,[6]; human liver microsomes,major component observed
same,metabolites of the furanyl ring,[6]; rat liver microsomes,no metabolites corresponding to oxidation or opening of the furanyl ring were detected
same,parent in 60 min samples,[6]; rat liver microsomes,major component observed
same,Kp,"[7]; brain, rat locomotor battery PK",~0.75
same,free brain concentration,"[7]; rat, 10 mg/kg",134 nM
same,free brain concentration over in vitro EC50,"[7]; rat, 10 mg/kg",~2.9 fold
same,adverse events (AEs) in dog,[8]; 0.5 mg/kg,GI-salivation and rigidity
same,time of AEs postdose,[8]; at Cmax,1 to 3 min
same,adverse events (AEs) in dog,"[8]; listed as VU6024578/BI02982816, 0.5 mg/kg",unanticipated AEs
same,adverse events (AEs) in rats,[9],no AEs
same,inhibition at 10 µM,[10],51%
same,inhibition at 10 µM,[11],62%
